From the METLIN SMRT retention time set (Domingo-Almenara et al. 2019)

assay: gradient 5% acetonitrile 3 min, to 50% in 2 min, to 85% in 15 min, held 3 min, 100 µL/min; settings: column: Zorbax Extend-C18 2.1 x 50 mm; eluents: water / acetonitrile, 0.1% formic acid
Method in brief: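 Pure standards were run in mixtures of ~100 molecules by HPLC coupled to a quadrupole time-of-flight mass spectrometer. The column was a Zorbax Extend-C18 (2.1 × 50 mm, 1.8 μm) at 100 μL/min, with water and acetonitrile each containing 0.1% formic acid, in positive and negative ionization mode. Dead and dwell volumes were 40 μL and 900 μL. Retention time was taken from computationally picked adduct peaks, each manually inspected, with data collected over 3 months.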

RP-LC retention time [s] | Structure (SMILES)
595 | CN1CCC(NC(=O)c2n[nH]c3c2CN(C(=O)c2ccccc2Br)CC3)CC1
648 | CCCCn1c(CN2CCOCC2)nc2cc(NC(=O)C(C)C)ccc21
915 | Cc1cccc(-n2ccnc(SCC(=O)Nc3cc(Cl)ccc3C)c2=O)c1
672 | O=C(NCc1cccc(F)c1)c1cn2ccncc2n1
894 | Cn1nc(-c2nnc(-c3ccc(F)cc3)o2)c2c1CCN(S(=O)(=O)c1ccc(C#N)cc1)C2
747 | O=S(=O)(c1cccnc1)N1CCCC(c2nnc(C(F)(F)F)o2)C1 (stereo not given)
1140 | CCOC(=O)c1noc2nc(C)nc(Nc3cccc(CC)c3)c12
839 | COc1ccc(OC)c(S(=O)(=O)NCc2c(-c3ccccc3)nc3sc(C)nn23)c1
843 | CCOC(=O)CNC(=O)NCc1cccn1Cc1ccc(Cl)cc1
764 | CCOC(=O)c1[nH]c(C)c(CCC(=O)N2CCC(C(=O)NCc3ccc4c(c3)OCO4)CC2)c1C
829 | Cc1csc(-c2ccc(N3CCN(C(=O)c4nccc5ccccc45)CC3)nc2)n1
930 | CC(C)c1csc(-c2csc(S(=O)(=O)NCc3ccc(N(C)C)cc3)c2)n1
586 | COc1ccccc1N1CCN(C(=S)Nc2ccc3nc(N4CCN(C)CC4)cc(C)c3c2)CC1
678 | O=C(NCC1CC1)C1CCN(c2ncnc3c2oc2ccccc23)CC1
875 | CC1Cc2cc(-c3cc(CNC(=O)c4ccccc4C(F)(F)F)no3)ccc2O1 (stereo not given)
991 | CC1CCCC(NC(=O)C2CCCN(C(=O)c3cc4sccc4n3C)C2)C1C (stereo not given)
740 | COCC(=O)N(C1CCOCC1)C1CCN(S(=O)(=O)c2ccccc2F)CC1
692 | O=S(=O)(c1ccc(F)cc1)N1CCC2(CC1)NCCN=C2NCc1ccccc1F
772 | COc1cccc(N2CCN(C(=O)CN3CCN(Cc4ccc(C)cc4)C(=O)C3=O)CC2)c1
934 | CC1=C(C(=O)N(CC(=O)NCc2ccccc2)c2ccc(Cl)cc2)SCCO1
858 | Cc1sc2ccn(Cc3ccc(F)cc3)c(=O)c2c1C(=O)NCC1CC1
683 | Cc1ccc(NC(=O)NCC(c2cccnc2)c2c[nH]c3ccccc23)c(C)c1 (stereo not given)
882 | CC1CN(c2nc3ccccc3nc2SCC(=O)N2CCOCC2)CC(C)O1 (stereo not given)

Further lines, the compound ahead of its results:

Structure (SMILES) | RP-LC retention time [s]
C=CCN1CCN(c2ccc3nnc(CCc4nc(-c5ccc(OC)cc5)no4)n3n2)CC1 | 603
c1ccc(-c2nc(-c3ccc(-n4cccn4)nc3)no2)cc1 | 1200
CCCc1nnc(NC(=O)C2CC(=O)N(CCc3c[nH]c4ccc(Cl)cc34)C2)s1 (stereo not given) | 764
O=C(Nc1cccc(Cl)c1)C1CCCN1S(=O)(=O)c1cccc2nsnc12 (stereo not given) | 949
COc1cccc(NC(=O)c2cc(C)n3nc(C)cc3n2)c1 | 928
O=C([C@@H]1C[C@H](F)CN1S(=O)(=O)c1ccc(F)cc1)N1CCCCC1 | 784
COc1cc(CN2C[C@@H](CO)[C@H](N(C)C)C2)ccc1OC(C)C | 554
Cc1c(C(=O)N2CCSCC2)cnn1-c1cc(-c2nc(C(C)C)no2)ccn1 | 974
COCCNC(=O)c1c2c(cn(-c3ccc(Cl)cc3)c1=O)C(=O)CC(C)(C)C2 | 856
Cc1ccc(-n2c(N3CCCC(C(=O)NCCCOC(C)C)C3)nc3ccsc3c2=O)cc1 (stereo not given) | 838
Cc1nc(OCC(=O)N2CCCCCC2)c2c(-c3ccc(F)cc3)noc2n1 | 1100
Cc1ccccc1CC(=O)N1CCC(n2c(=O)n(C)c3cncnc32)C1 (stereo not given) | 652
CCCN1CCCCc2cc(C(=O)N(CC)C(C)C)sc21 | 1240
O=C(Nc1cccn2cnnc12)c1cccc(C(F)(F)F)c1 | 738
COc1ccc(NC(=O)N2CCC(c3cc(N)on3)CC2)cc1F | 663
O=C1CCSc2c1cccc2C(=O)N1CCOCC1 | 601
COc1ccc(S(=O)(=O)Nc2cccc(-c3cn4ccccc4n3)c2)cc1 | 645
CCc1ccc2c(c1)-c1ccccc1S(=O)(=O)N2CC(=O)NCc1ccncc1 | 703
CCOc1cccc(-c2noc(CN3C(=O)COc4ccccc43)n2)c1 | 1050
CC(NC(=O)C1CCN(c2cnn(Cc3ccccc3)c(=O)c2)CC1)c1ccccc1 (stereo not given) | 803
CCCNc1cc(N2CCC(CCC(=O)N3CCC(C(=O)OCC)CC3)CC2)ncn1 | 664
CCOc1ccc(NC(=O)C2CCN(c3c(C(=O)N(CC)CC)cnc4snc(C)c34)CC2)cc1 | 882
